Entries after “also recorded” stand apart in the source; their conditions may differ.
Legend:
[1] = Absorption/emission profiles and spectral properties of the dyes; format: physicochemical
Protocol: The following properties of 679 Compound 1-NHS were compared with commercially available dyes.
Emission/excitation profiles for inventive and commercial compounds was determined by reconstituting the compounds in DMF at 10 mg/ml and then diluting in PBS buffer pH 7.2 to 10 μg/ml. Absorbance spectra were collected on Cary UV spectrophotometer and emission spectra were collected on Tecan Safire, shown in FIG. 1 where solid lines represent absorbance spectra and dashed lines represent emission spectra, for DyLight 680-NHS (purple), DyLight 680B-NHS (blue), 679 Compound 1-NHS (red), and Company B Compound-NHS (black). The maximum absorbance and emission for each compound is shown below.
The following properties of 679 Compound 1-NHS, 679 Compound 4/4-NHS (V08-15173), and 679 Compound 4/4-NHS (V10-04152) were compared with commercially available dyes.

[2] = Micro conjugation (labeling of ≥0.1 mg monoclonal antibody): D/P, protein recovery, free dye; conditions: 15 μg dye or commercial kit, mouse MAb
Protocol: Another experiment set used inventive and commercial compounds, each as the NHS ester, in a micro conjugation (labeling of≥0.1 mg antibody). […] The antibodies were labeled and purified as described above.

lamin A = test: Immunofluorescence detection of lamin A in U2OS cells, dye-GAM secondary (FIG. 29A-C and repeat); format: cell-based, human; conditions: for Mean Total Intensity, Negative control: no primary antibody
Protocol: In the indicated experiments, the inventive compounds and commercial dye were evaluated for immunofluorescence in a cell based assay using the following protocol. Frozen U20S cell plates which were stored at −80° C. were thawed for 45 minutes at 50° C. Storage buffer (PBS) was removed and the cells were permeabilized for 15 minutes with 0.1% Triton-X100 in 1×PBS buffer (100 μl/well). The cell plate was blocked for 60 minutes in 2% BSA/PBS-0.1% Triton-X100. Primary antibody, either rat anti-Grp94 (5 μg/ml), mouse anti-lamin A (10 μg/ml), or rabbit anti-lamin B1 (10 μg/ml), diluted in 2% BSA/PBS-0.1% Triton-X100 was added to the plate and incubated for 1 hour at room temperature. Control wells contained only 2% BSA/PBS-0.1% Triton-X100 blocker. After incubation, the antibody solution was removed from the plate and the plate was washed three times with 100 μl/well of PBS-0.5% Tween-20 and one time with 100 μl/well PBS. GARat, GAM, or GAR secondary antibodies labeled with various molar excess of the inventive or commercial compound were diluted to 4 μg/ml in PBS and incubated for 1 hour at room temperature. The plates were washed three times with 100 μl/well of PBST and once with 100 μl/well PBS, and Hoechst (diluted to 0.1 μg/ml in PBS) was added to each well (100 μl/well). The plates were scanned on ArrayScan Plate Reader or ToxInsight Instrument.
Quantitative analysis of a repeat experiment of FIG. 29A-C are shown below.

CEA = system: CEA; set-up: species or system nu/nu mice; conditions: mouse; for post-experiment surgical exposure (in words): in vivo
Protocol: The inventive compounds are used for in vivo imaging as described in J. Gastrointest Surg (2008) 12:1938-1950. Briefly, human pancreatic cell lines are maintained in media supplemented with penicillin/streptomycin at 37° C. with 5% CO2. Mouse anti-CEA antibody and Control Mouse IgG (in PBS with 0.20% sodium azide) are conjugated to V08-15173. The dye is reconstituted at 10 mg/ml in DMF and then added to the antibody at a 10 molar excess. The reaction is carried out for one hour at room temperature. The samples are then dialyzed against 3×2 L of PBS. The cell lines are plated in 96-well plates at 5×10^4 cells per well. After 48 hours culture in appropriate media, the cells are incubated with 1 μg of V08-15173 labeled anti-CEA antibody or V08-15173-labeled control mouse IgG for four hours at 37° C. The cells are then washed three times with PBS and then imaged with an inverted Nikon De-485 microscope and Spot camera RD.
Surgical procedures and intravital imaging are performed with the animals anesthesized by intramuscular injection of 0.02 ml of 50% ketamine, 38% xylazine and 12 acepromazine maleate. Human pancreatic and colorectal cancer cell lines are harvested by trypsinization and washed twice with serum free medium and washed twice with serum-free medium. Cells (1×10^6 in 100 μl of serum-free media) are injected subcutaneously within 30 minutes of harvesting over the right flank in female nu/nu mice between 4-6 weeks of age. Subcutaneous tumors are allowed to grow for 7-14 days until they reached diameter of 1-2 mm prior to the delivery of conjugated antibody. For ASPC-1 implants, the cells are harvested by trpsinization and washed 3× in serum-free media. The cells are resuspended in serum-free media. The cells are resuspended in serum-free media at 5×10^6/ml. A volume of 200 μl of the cell suspension is then injected directly into the peritoneal cavity within 30 minutes of harvesting.
For antibody delivery, one to two weeks after subcutaneous, orthotopic, or intraperitoneal tumor implantation, animals are given intravenous (i.v.) injection of either conjugated anti-CEA or conjugated control IgG antibody diluted in PBS to a final volume of 100 μl. All i.v. injections are done via the tail vein. For the dose-response experiment, the antibody dose is 75 μg. For the in vivo time course, the animals are anesthesized and imaged at 30 min, 1, 2, 6, 24 hours and 8 and 15 days after systemic antibody delivery.
The inventive compounds are used for in vivo imaging as described in J. Gastrointest Surg (2008) 12:1938-1950. Briefly, human pancreatic cell lines are maintained in media supplemented with penicillin/streptomycin at 37° C. with 5% CO2. Mouse anti-CEA antibody and Control Mouse IgG (in PBS with 0.20% sodium azide) are conjugated to 779 Compound 1. […]

[3] = first property table of Example 6
[4] = second property table of Example 6

COCC[N+]1=C(/C=C/C=C/C=C2/N(CCCCCC(=O)ON3C(=O)CCC3=O)c3ccc4c(S(=O)(=O)[O-])cc(S(=O)(=O)O)cc4c3C2(C)C)C(C)(CCCS(=O)(=O)O)c2c1ccc1c(S(=O)(=O)O)cc(S(=O)(=O)O)cc21 (stereo not drawn) [679 Compound 1-NHS]
Em (nm) [1, 3]: 698 nm
Ex (nm) [1, 3]: 679 nm
Em (nm) [1, 4]: 698 nm
Ex (nm) [1, 4]: 679 nm
ε (M^−1cm^−1) (theoretical) ([1]; theoretical): 180,000 M^−1cm^−1
ε (M−1cm−1) (theoretical) ([1]; theoretical): 180,000 M−1cm−1

CF 680-cytochrome C
% Free Dye [2]: 17%

COCCOCCOCCOCC[N+]1=C(/C=C/C=C/C=C2/N(CCOCCOCCOCCOCCC(=O)ON3C(=O)CCC3=O)c3ccc4c(S(=O)(=O)[O-])cc(S(=O)(=O)O)cc4c3C2(C)CCOCCOCCOCCOC)C(C)(CCOCCOCCOCCOC)c2c1ccc1c(S(=O)(=O)O)cc(S(=O)(=O)O)cc21 (stereo not drawn) [Compound V08-15173]
S/B (lamin A; 2.5 X molar excess): 2.9
S/B (lamin A; 5.0 X molar excess): 4.9
S/B (lamin A; 7.5 X molar excess): 6.0
S/B (lamin A; 10 X molar excess): 4.9
S/B (lamin A; 15 X molar excess): 4.6
Mean Total Intensity (Average) (lamin A; GAM conjugate 4 μg/ml, 2.5 X molar excess): 17366
Mean Total Intensity (Average) (lamin A; GAM conjugate 4 μg/ml, 5.0 X molar excess): 32820
Mean Total Intensity (Average) (lamin A; GAM conjugate 4 μg/ml, 7.5 X molar excess): 42876
Mean Total Intensity (Average) (lamin A; GAM conjugate 4 μg/ml, 10 X molar excess): 47756
Mean Total Intensity (Average) (lamin A; GAM conjugate 4 μg/ml, 15 X molar excess): 49060
non-specific binding / specificity (in words) (lamin A; GAM conjugates): a minimal amount of non-specific binding; also recorded: little non-specific binding
Mean Total Intensity, Negative control (lamin A; 2.5 X): 5966
Mean Total Intensity, Negative control (lamin A; 5.0 X): 6643
Mean Total Intensity, Negative control (lamin A; 7.5 X): 7100
Mean Total Intensity, Negative control (lamin A; 10 X): 9690
Mean Total Intensity, Negative control (lamin A; 15 X): 10779
S/B (lamin A; repeat experiment, 2.5 X): 9.8
Mean Total Intensity (Average) (lamin A; repeat experiment, 2.5 X molar excess): 118440
S/B (lamin A; repeat experiment, 5 X): 19.4
Mean Total Intensity (Average) (lamin A; repeat experiment, 5 X molar excess): 183078
S/B (lamin A; repeat experiment, 10X): 29.9
Mean Total Intensity (Average) (lamin A; repeat experiment, 10X molar excess): 391473
S/B (lamin A; repeat experiment, 15 X): 12.2
Mean Total Intensity (Average) (lamin A; repeat experiment, 15 X molar excess): 211270
Mean Total Intensity, Negative control (lamin A; repeat experiment, 2.5 X): 12053
Mean Total Intensity, Negative control (lamin A; repeat experiment, 5 X): 9441
Mean Total Intensity, Negative control (lamin A; repeat experiment, 10X): 13094
Mean Total Intensity, Negative control (lamin A; repeat experiment, 15 X): 17260
Ex vivo analysis of the vital organs (in words) (CEA): presence of dye predominantly in the liver with some signal detected in the spleen intestines and lungs
post-experiment surgical exposure (in words) (CEA): accumulation of dye in the liver, bladder, and a region of inflammation in the subcutaneous tissue

COCC[N+]1=C(/C=C/C=C/C=C/C=C2/N(CCCCCC(=O)O)c3ccc4c(S(=O)(=O)[O-])cc(S(=O)(=O)O)cc4c3C2(C)C)C(C)(CCCS(=O)(=O)O)c2c1ccc1c(S(=O)(=O)O)cc(S(=O)(=O)O)cc21 (stereo not drawn) [779 Compound 1]
Ex vivo analysis of the vital organs (in words) (CEA): presence of dye predominantly in the liver with some signal detected in the spleen intestines and lungs
post-experiment surgical exposure (in words) (CEA): accumulation of dye in the liver, bladder, and a region of inflammation in the subcutaneous tissue

COCC[N+]1=C(/C=C/C=C/C=C2/N(CCCCCC(=O)O)c3ccc4c(S(=O)(=O)[O-])cc(S(=O)(=O)[O-])cc4c3C2(C)C)C(C)(CCCS(=O)(=O)[O-])c2c1ccc1c(S(=O)(=O)[O-])cc(S(=O)(=O)[O-])cc21.[Na+].[Na+].[Na+].[Na+] (single isomer, unassigned) [679 Compound 1/1 (Isomer 1), 2-{(1E,3E)-5-[3-(5-Carboxypentyl)-1,1-dimethyl-6,8-disulfo-1,3-dihydro-benzo[e]indol-(2E)-ylidene]-penta-1,3-dienyl}-3-(2-methoxy-ethyl)-1-methyl-6,8-disulfo-1-(3-sulfopropyl)-1H-benzo[e]indolium]
UV-vis (PBS): λmax ([1]; PBS): 679 nm
λem ([1]; PBS): 698 nm

CF 680R-cytochrome C
% Free Dye [2]: 5%

Alexa 680-PDI
% Free Dye [2]: 9%

COCC[N+]1=C(/C=C/C=C/C=C2/N(CCCCCC(=O)O)c3ccc4c(S(=O)(=O)[O-])cc(S(=O)(=O)[O-])cc4c3C2(C)C)C(C)(CCCS(=O)(=O)[O-])c2c1ccc1c(S(=O)(=O)[O-])cc(S(=O)(=O)[O-])cc21.[Na+].[Na+].[Na+].[Na+] (single isomer, unassigned) [679 Compound 1/1 (Isomer 2), 2-{(1E,3E)-5-[3-(5-Carboxypentyl)-1,1-dimethyl-6,8-disulfo-1,3-dihydro-benzo[e]indol-(2E)-ylidene]-penta-1,3-dienyl}-3-(2-methoxy-ethyl)-1-methyl-6,8-disulfo-1-(3-sulfopropyl)-1H-benzo[e]indolium]
λem ([1]; PBS): 698 nm

Alexa 680-cytochrome C
% Free Dye [2]: 3%

COCCOCCOCCOCC[N+]1=C(/C=C/C=C/C=C2/N(CCOCCOCCOCCOCCC(=O)ON3C(=O)CCC3=O)c3ccc4c(S(=O)(=O)[O-])cc(S(=O)(=O)O)cc4c3C2(C)CCOCCOCCOCCOC)C(C)(CCOCCOCCOCCOC)c2c1ccc1c(S(=O)(=O)O)cc(S(=O)(=O)O)cc21 (stereo not drawn) [V08-15173 NHS]
Em (nm) [1, 4]: 706 nm
Ex (nm) [1, 4]: 684 nm
ε (M^−1cm^−1) (theoretical) ([1]; theoretical): 180,000 M^−1cm^−1
